# Results: US20030166648A1, “Felbamate derived compounds” (priority 2002, published 2003)
# What was measured:
# [1] = Stability of oxazinane-dione at relevant pH; format: physicochemical
# Text: It is anticipated, therefore, that the oxazinane-dione 9 is responsible for some aspects of felbamate's efficacy in vivo. As patients undergoing felbamate therapy for seizure control ingest large quantities of felbamate (grams per day), even a 1-2% conversion to a pharmacologically active metabolite could have significant effects. […] In light of the possibility that the oxazinane-dione 9 could be a metabolic precursor to the major human metabolite, acid carbamate 4, it may be formed in significant quantities (the acid carbamate was reported to represent ˜ 12% of a dose). […] Also included in this class are cyclic congeners 21 and 22, which may be formed from felbamate derivatives (see scheme II). Also included is 20, which may be an unknown metabolite of felbamate 1 and could be produced from felbamate derivative 12 by the cytochrome P450 metabolism.
# [2] = LC/MS quantification of felbamate and metabolites in patient urine; format: in vivo, human; settings: highest value; patient with total daily dose of 6.0 grams of felbamate
# Description: Preparation of Patient Urine Samples.
# Urine samples were obtained from patient volunteers undergoing felbamate therapy for control of epileptic seizures and under the care of physicians at either the University of Virginia (Charlottesville, Va.) or the EpiCare Center (Memphis, Tenn.). Urine samples were diluted four fold with distilled water (this was done prior to overnight shipment for samples requiring shipping) and placed in an orbital shaking water bath for ˜20 min at 37° C. to insure that all of the analytes were in solution. 500 μL of this diluted sample were removed and added to 100 μL of a mixture of the four deuterated internal standards. […] After mixing, 200 μL were removed and added to 20 μL of 20% H0Ac. […] This fraction was then analyzed by LC/MS without further manipulation.
# LC/MS Analysis of Urine Samples for Metabolite Quantification.
# LC/MS analysis was performed using a Waters 2690 HPLC equipped with an autosampler and a Waters 486 tunable absorbance detector. […] The post-column flow was directed through a Waters 486 tunable absorbance detector (10 μL flow cell, λ=214 nm) which was used for qualitative assessment of the sample and not for quantitation. […]
# Quantification was achieved by integration of the peaks from the mass chromatogram for each analyte using software (Navigator 1.1) provided with the LCQ. […]
# [3] = tested on: painful peripheral neuropathy; settings: rat model of painful peripheral neuropathy; cited from earlier work
stability [1],amount of felbamate excreted per mL of urine [2],Structure (SMILES),effect on measures of pain (in words) [3]
unstable,,O=C1NC(=O)C(c2ccccc2)CO1 (stereo not drawn) [oxazinane-dione 9],
,"10,064±515 nMoles/mL","NC(=O)OCC(COC(N)=O)c1ccccc1 [felbamate, 2-phenyl-1,3-propanediol dicarbamate]",significant reductions in all measures of pain
